Data published in ChEMBL document CHEMBL1201862, “PubChem BioAssay data set” (2004).
The source made the active and inactive calls.

Assays:
[1] = target: 5-hydroxytryptamine receptor 5A (Homo sapiens, UniProt P47898); assay: Counterscreen for agonists of OPRM1-OPRD1 heterodimerization: luminescence-based cell-based high throughput dose response assay to identify agonists of 5-hydroxytryptamine (serotonin) 5A receptor (HTR5A). [Related pubchem assays (depositor defined):AID504326, AID504355, AID504692, AID504904, AID504905]; format: functional
[2] = target: Delta-type opioid receptor (Homo sapiens, UniProt P41143); assay: Counterscreen for agonists of heterodimerization of the mu 1 (OPRM1) and delta 1 (OPRD1) opioid receptors: Luminescence-based cell-based high throughput dose response assay to identify agonists of OPRD1 homodimerization. [Related pubchem assays (depositor defined):AID504326, AID504355, AID504692, AID504904, AID504905]; format: functional
Mu-type opioid receptor = Mu-type opioid receptor (Homo sapiens, UniProt P35372); assay: Counterscreen for agonists of heterodimerization of the mu 1 (OPRM1) and delta 1 (OPRD1) opioid receptors: Luminescence-based cell-based high throughput dose response assay to identify agonists of OPRM1 homodimerization.; format: functional;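 further: U2OS cells expressing OPRM1 and beta-arrestin as split beta-galactosidase partners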
CAAX prenyl protease 2 [3] = target: T1, CAAX prenyl protease 2 (Homo sapiens, UniProt Q9Y256); assay: inhibition of Ras-converting CAAX protease Rce1 – biochemical, yeast membranes, quenched-peptide fluorescence, cherry-pick, dose response (AID 588849)
T1 sequence (Q9Y256 whole entry): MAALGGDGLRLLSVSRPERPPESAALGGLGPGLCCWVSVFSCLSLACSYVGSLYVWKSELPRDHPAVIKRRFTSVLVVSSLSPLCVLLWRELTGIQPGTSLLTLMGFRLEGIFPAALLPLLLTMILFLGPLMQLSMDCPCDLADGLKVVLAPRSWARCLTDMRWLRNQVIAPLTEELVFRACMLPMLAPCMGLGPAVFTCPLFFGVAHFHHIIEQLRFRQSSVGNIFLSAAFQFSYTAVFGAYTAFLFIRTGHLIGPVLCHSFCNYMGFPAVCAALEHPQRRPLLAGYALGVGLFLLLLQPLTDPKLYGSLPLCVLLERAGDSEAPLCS

[4] = M. tuberculosis H37Rv growth inhibitors, H37Rv strain (AID 1626); format: functional
[5] = target: T2, Tyrosine-protein phosphatase non-receptor type 7 (Homo sapiens, UniProt P35236); assay: inhibition of hematopoietic tyrosine phosphatase HePTP – biochemical, set 2, SAR follow-up (AID 449736); format: functional
T2 sequence (P35236 whole entry): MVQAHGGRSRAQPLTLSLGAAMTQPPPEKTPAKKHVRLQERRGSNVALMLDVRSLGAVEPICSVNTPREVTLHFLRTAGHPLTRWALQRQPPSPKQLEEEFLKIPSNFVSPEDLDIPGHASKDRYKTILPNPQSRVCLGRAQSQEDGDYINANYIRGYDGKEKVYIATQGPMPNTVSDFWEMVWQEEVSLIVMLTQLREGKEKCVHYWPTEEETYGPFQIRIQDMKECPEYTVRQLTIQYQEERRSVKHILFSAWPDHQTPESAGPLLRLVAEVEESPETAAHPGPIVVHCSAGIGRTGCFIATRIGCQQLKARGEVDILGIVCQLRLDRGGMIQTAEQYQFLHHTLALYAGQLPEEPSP

[6] = target: T3, Tyrosine-protein phosphatase non-receptor type 12 (Homo sapiens, UniProt Q05209); assay: SAR Selectivity Analysis of small molecule inhibitors of PEST using pCAP in a fluorescence assay. [Related pubchem assays (depositor defined):AID1779, AID1784, AID2135]; format: functional
T3 sequence (Q05209 whole entry): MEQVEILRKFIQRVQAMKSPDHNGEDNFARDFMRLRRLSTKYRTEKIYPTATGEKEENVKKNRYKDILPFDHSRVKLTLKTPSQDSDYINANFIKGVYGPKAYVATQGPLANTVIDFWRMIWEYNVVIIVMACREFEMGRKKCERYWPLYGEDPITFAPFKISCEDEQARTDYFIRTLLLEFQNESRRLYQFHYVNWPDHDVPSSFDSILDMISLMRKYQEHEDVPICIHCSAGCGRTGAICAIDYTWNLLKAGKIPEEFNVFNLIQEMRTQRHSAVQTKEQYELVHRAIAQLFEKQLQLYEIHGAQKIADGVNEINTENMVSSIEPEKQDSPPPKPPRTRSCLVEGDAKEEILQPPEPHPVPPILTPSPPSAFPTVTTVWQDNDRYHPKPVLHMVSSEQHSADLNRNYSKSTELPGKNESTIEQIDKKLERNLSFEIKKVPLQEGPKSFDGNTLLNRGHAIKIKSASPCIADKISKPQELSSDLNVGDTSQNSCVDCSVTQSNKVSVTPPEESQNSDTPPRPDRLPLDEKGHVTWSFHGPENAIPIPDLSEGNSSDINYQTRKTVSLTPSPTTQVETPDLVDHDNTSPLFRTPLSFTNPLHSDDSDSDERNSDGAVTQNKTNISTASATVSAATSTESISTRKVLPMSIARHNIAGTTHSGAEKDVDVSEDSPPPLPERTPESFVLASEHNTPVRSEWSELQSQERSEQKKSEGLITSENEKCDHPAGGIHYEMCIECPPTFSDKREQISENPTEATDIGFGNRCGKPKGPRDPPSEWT

[7] = target: T4, Tyrosine-protein phosphatase non-receptor type 22 (Homo sapiens, UniProt Q9Y2R2); assay: inhibition of lymphoid tyrosine phosphatase LYP – biochemical, pCAP fluorogenic substrate, fluorescence, set 3, SAR follow-up (AID 449727); format: functional
T4 sequence (Q9Y2R2 whole entry): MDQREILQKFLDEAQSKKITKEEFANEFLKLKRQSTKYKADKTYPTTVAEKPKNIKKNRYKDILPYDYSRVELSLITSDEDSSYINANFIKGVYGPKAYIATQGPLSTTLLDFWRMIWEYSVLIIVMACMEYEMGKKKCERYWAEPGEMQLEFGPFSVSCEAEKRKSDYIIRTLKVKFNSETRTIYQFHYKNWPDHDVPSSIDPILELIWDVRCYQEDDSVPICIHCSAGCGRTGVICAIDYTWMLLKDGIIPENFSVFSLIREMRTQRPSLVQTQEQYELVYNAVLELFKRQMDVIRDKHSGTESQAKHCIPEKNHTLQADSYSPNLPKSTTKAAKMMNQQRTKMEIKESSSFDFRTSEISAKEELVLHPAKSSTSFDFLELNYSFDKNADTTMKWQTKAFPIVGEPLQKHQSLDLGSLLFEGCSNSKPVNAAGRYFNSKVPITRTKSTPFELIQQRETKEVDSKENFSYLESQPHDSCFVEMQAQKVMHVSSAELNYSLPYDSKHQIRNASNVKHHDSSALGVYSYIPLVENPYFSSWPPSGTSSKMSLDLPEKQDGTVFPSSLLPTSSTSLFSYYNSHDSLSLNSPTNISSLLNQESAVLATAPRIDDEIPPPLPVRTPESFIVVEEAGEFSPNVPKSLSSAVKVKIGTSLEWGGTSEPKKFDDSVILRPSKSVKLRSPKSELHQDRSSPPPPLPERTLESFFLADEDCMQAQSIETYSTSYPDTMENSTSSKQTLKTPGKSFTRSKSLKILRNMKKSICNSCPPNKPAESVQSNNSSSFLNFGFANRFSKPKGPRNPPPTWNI

[8] = target: T4, Tyrosine-protein phosphatase non-receptor type 22; assay: SAR LYP1 Fluorescent Assay using OMFP substrate for In Vitro dose response studies - Set 2. [Related pubchem assays (depositor defined):AID1779, AID1784, AID2140, AID449726, AID488869]; format: functional
[9] = target: T4, Tyrosine-protein phosphatase non-receptor type 22; assay: SAR LYP1 Fluorescent Assay using OMFP substrate for In Vitro dose response studies - Set 3. [Related pubchem assays (depositor defined):AID1779, AID1784, AID2140, AID2686]; format: functional
[10] = target: T4, Tyrosine-protein phosphatase non-receptor type 22; assay: SAR LYP1 Fluorescent Assay using pCAP substrate for In Vitro dose response studies - Set 2. [Related pubchem assays (depositor defined):AID1779, AID1784, AID2135, AID449727]; format: functional
[11] = target: T5, Short transient receptor potential channel 4 (Mus musculus, UniProt Q9QUQ5); assay: calcium entry via TRPC4 opening agents – cell-based, HEK293 TRPC4/mu-opioid, Fluo-4 calcium, dose response (AID 434937); format: functional
T5 sequence (Q9QUQ5 whole entry): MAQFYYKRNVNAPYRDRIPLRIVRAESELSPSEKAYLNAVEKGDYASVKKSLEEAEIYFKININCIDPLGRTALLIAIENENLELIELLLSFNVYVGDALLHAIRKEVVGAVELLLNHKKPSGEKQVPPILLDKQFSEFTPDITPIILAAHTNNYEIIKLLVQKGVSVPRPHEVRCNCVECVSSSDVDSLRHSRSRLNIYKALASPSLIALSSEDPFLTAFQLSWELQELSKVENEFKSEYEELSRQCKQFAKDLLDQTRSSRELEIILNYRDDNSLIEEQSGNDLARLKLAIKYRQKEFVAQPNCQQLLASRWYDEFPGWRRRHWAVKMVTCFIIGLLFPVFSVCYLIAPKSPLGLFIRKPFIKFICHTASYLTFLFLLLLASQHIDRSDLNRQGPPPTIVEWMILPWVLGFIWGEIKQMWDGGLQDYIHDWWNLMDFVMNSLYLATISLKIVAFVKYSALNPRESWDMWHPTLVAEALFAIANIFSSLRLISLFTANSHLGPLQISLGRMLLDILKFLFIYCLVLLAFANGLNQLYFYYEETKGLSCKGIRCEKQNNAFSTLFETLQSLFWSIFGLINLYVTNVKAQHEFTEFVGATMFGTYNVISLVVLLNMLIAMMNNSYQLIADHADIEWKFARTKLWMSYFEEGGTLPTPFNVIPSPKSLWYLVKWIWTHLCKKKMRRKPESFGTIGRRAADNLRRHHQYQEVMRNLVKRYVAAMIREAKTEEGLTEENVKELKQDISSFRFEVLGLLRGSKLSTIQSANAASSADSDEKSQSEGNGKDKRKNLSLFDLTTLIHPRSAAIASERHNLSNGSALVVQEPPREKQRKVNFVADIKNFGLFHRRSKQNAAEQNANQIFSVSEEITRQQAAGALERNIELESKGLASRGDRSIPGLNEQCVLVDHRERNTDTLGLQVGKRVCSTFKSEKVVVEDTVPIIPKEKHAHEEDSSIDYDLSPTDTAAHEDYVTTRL

Escherichia coli = assay: microbe, parasite or virus in culture
CAAX prenyl protease 2 [12] = target: T6, CAAX prenyl protease 2 (Saccharomyces cerevisiae S288c, UniProt Q03530); format: biochemical
T6 sequence (Q03530 whole entry): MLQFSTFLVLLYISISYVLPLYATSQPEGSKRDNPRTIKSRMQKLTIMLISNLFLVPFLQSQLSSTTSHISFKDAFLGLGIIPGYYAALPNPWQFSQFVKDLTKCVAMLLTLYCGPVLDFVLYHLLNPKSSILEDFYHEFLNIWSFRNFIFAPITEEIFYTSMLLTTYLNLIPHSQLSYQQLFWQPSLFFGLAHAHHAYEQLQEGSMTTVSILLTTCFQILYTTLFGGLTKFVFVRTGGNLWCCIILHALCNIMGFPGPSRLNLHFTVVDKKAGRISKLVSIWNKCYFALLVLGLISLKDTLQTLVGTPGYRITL

HeLa = assay: ATP-based viability loss in HeLa cells – cell-based, CellTiter-Glo luminescence, cherry-pick samples, cytotoxicity control for MITF activator project, dose response (AID 540259); format: functional; settings: Homo sapiens
[13] = target: Voltage-gated inwardly rectifying potassium channel KCNH2 (Homo sapiens, UniProt Q12809); settings: Potency;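 further: confirmatory quantitative high-throughput screen measuring inhibition of hERG channel activity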
Chain of Voltage-gated inwardly rectifying potassium channel KCNH2 (Q12809 whole entry): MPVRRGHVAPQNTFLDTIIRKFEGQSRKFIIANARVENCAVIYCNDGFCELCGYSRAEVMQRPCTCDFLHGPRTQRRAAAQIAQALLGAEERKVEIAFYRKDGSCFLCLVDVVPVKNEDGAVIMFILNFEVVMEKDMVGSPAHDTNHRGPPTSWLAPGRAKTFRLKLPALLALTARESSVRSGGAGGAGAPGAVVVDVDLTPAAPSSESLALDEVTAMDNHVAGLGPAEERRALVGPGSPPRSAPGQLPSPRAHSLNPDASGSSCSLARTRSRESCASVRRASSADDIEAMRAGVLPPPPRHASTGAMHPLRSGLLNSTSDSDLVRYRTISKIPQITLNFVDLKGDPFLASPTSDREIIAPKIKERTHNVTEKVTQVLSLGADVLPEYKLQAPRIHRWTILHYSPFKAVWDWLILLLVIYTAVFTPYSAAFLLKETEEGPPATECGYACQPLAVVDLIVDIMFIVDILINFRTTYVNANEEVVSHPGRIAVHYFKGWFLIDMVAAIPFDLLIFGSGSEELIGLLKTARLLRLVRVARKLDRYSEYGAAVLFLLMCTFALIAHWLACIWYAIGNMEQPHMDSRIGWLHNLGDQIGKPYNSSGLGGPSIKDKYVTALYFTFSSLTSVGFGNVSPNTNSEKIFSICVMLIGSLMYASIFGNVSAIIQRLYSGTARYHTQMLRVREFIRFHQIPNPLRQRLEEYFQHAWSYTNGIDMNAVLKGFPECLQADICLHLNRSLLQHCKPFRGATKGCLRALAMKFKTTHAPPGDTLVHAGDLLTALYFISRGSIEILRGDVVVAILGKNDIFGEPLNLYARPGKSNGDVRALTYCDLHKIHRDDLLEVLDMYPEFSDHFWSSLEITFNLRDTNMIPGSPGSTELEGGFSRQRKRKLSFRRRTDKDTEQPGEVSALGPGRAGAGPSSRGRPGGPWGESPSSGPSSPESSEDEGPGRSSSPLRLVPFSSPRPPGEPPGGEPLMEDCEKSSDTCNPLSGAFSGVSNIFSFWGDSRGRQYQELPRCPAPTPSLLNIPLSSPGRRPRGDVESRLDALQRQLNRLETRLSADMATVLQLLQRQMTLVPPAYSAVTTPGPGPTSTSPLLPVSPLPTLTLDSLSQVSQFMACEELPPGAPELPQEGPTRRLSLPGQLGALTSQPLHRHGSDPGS

Chain of 5-hydroxytryptamine receptor 5A (P47898 whole entry): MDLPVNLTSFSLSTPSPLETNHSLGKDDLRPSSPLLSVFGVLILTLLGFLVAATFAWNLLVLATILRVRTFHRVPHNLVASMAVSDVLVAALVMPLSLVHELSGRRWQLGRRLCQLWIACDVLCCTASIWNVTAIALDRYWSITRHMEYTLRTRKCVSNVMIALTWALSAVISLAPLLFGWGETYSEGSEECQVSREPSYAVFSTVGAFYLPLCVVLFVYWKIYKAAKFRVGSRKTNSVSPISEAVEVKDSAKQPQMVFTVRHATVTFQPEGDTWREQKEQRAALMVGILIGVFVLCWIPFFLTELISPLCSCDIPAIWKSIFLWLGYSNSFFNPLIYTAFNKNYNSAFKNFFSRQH
Chain of Mu-type opioid receptor (P35372 whole entry): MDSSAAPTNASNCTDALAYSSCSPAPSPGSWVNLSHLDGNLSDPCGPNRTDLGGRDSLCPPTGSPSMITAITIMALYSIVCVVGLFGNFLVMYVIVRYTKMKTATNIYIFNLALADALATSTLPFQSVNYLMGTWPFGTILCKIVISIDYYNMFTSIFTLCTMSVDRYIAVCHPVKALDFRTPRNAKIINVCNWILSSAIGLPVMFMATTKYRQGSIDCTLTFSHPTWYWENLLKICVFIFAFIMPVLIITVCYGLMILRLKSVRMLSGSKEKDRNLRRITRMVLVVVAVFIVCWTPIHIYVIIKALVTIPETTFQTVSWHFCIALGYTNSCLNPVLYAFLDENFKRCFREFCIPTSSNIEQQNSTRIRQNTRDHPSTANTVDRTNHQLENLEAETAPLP
Chain of Delta-type opioid receptor (P41143 whole entry): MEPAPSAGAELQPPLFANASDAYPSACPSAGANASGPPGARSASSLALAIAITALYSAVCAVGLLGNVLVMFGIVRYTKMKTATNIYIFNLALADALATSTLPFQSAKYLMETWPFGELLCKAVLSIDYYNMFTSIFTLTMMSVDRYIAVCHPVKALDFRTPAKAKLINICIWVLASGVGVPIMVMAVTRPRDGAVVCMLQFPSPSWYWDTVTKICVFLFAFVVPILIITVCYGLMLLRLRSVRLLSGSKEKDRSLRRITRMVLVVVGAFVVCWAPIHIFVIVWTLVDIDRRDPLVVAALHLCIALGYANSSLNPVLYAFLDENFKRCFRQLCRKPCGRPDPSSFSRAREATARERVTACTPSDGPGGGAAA

CCN1CCN(S(=O)(=O)c2ccc(Cl)c(C(=O)N(CCc3ccccc3)Cc3ccccc3)c2)CC1
EC50 [1]: > 92.5 µM (inactive)
EC50 [2]: > 92.5 µM (inactive)
EC50 (Mu-type opioid receptor): > 92.5 µM (inactive)

Fc1cccc(-c2cc3nc(-c4ccccc4)cc(N4CCC5(CC4)OCCO5)n3n2)c1
AC50 (CAAX prenyl protease 2 [3]): 1.35 µM (active)
IC50 [4]: > 100 µM (active)

COc1cc(/C=C2/SC(=S)N(c3cccc(C(=O)O)c3)C2=O)ccc1OCc1ccc(Cl)cc1
IC50 [5]: 0.394 µM (active)
IC50 [6]: 0.953 µM (active)
IC50 [7]: 3.49 µM (active)
IC50 [8]: 4.04 µM (active)
IC50 [9]: 3.06 µM (active)
IC50 [10]: 3.68 µM (active)

COc1ccc(C(CNC(=O)c2ccc3c(c2)CCC3)N(C)C)cc1 (stereo not drawn)
EC50 [1]: > 92.5 µM (inactive)
EC50 [2]: 7.36 µM (active)
EC50 [11]: 0.0053 µM (active)
EC50 (Mu-type opioid receptor): 0.503 µM (active)

Cc1cccnc1NC(=O)c1cccc(S(=O)(=O)N2CCCc3ccccc32)c1
AC50 (Escherichia coli): 23.6 µM (active)

CC(=O)OC1CCC2(C)C(COc3ccc4ccc(=O)oc4c3)C(C)(O)CCC2C1(C)C (stereo not drawn)
AC50 (CAAX prenyl protease 2 [3]): 87.2 µM (active)
AC50 (CAAX prenyl protease 2 [12]): 18.1 µM (active)

COc1cc(/C=C2/SC(=S)N(c3cccc(C(=O)O)c3)C2=O)cc(Cl)c1OCc1cccc(C(=O)O)c1
IC50 [5]: 3.81 µM (active)
IC50 [6]: 2.81 µM (active)
IC50 [7]: 20.4 µM (active)
IC50 [8]: 14.6 µM (active)
IC50 [9]: 62.8 µM (active)
IC50 [10]: 12.2 µM (active)

Cc1nnc2sc(-c3ccc(N(C)C)cc3)nn2c1=O
AC50 (HeLa): 55.2 µM (active)

Nc1ccc(Cc2ccc(N)c(Cl)c2)cc1Cl
AC50 [13]: 79.4 µM (inconclusive)

O=C(CSc1nccn1Cc1ccccc1)NC1CCCC1
AC50 (Escherichia coli): 25.5 µM (active)

C#CC(C)(CC)NC(=O)c1cc2cccc(CC=C)c2oc1=O (stereo not drawn)
AC50 (Escherichia coli): 23.8 µM (active)

COc1ccc2cc(CCNC(=O)c3cccs3)c(O)nc2c1
AC50 (HeLa): 51 µM (active)

c1ccc(-n2ncc3c(NCc4cccs4)ncnc32)cc1
AC50 (HeLa): 55.5 µM (active)

CCOc1ccc(/C=N/NC(=O)c2ccc(-c3csc(Nc4ccc(C)cc4)n3)cc2)cc1OCC
IC50 [5]: 60.8 µM (active)
IC50 [6]: > 100 µM (inactive)
IC50 [7]: > 100 µM (inactive)
IC50 [8]: 95.3 µM (active)
IC50 [9]: > 100 µM (inactive)
IC50 [10]: > 100 µM (inactive)

O=C(CC1(O)C(=O)N(C/C=C/c2ccccc2)c2ccccc21)c1ccccn1 (stereo not drawn)
AC50 (CAAX prenyl protease 2 [3]): 59.1 µM (active)
AC50 (CAAX prenyl protease 2 [12]): 26.3 µM (active)
